{"source": "PubChem BioAssay AID504861", "about": "(Broad Institute, 2011)", "note": "Calls of active or inactive are those of the source.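 Rule for the calls: active = compounds lowering cell viability signal with fitted half-maximal concentration at most ten times their highest tested concentration; inconclusive = flat fit with 30 to 70% signal loss, or poor fit; inactive = the rest.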", "data": [{"test_system": "HEK293T viability, CellTiter-Glo ATP luminescence, 48 h", "assay": "HEK293T cell viability reduction, dose response, cytotoxicity control for LMP1 NF-kB inhibitor project, CellTiter-Glo luminescence, cherry-picks (AID 504861)", "values": [{"compound": "COc1cc([C@@H]2c3cc4c(cc3[C@@H](O[C@@H]3O[C@@H]5CO[C@@H](C)O[C@H]5[C@H](O)[C@H]3O)[C@H]3COC(=O)[C@H]23)OCO4)cc(OC)c1O", "AC50": "26.5 µM"}, {"compound": "Oc1ccc2ccccc2c1/C=N/Nc1nnc(-c2ncc[nH]2)c2ccccc12", "AC50": "2.32 µM"}, {"compound": "C=CCn1c(O)c(N=NC(=S)Nc2ccccc2F)c2cc(S(=O)(=O)N3CCOCC3)ccc21", "AC50": "> 26 µM (inactive)"}, {"compound": "Cc1oc2c(c1C(=O)c1ccc(Cl)cc1)C(=O)C(=O)c1ccccc1-2", "AC50": "4.37 µM"}, {"compound": "c1ccc(CN2CCN(c3ncnc4c3[nH]c3ccccc34)CC2)cc1", "AC50": "11.8 µM"}, {"compound": "COc1cccc(N=Nc2ccc(O)c3ncccc23)c1", "AC50": "2.88 µM"}, {"compound": "COc1ccc(C(=O)C(CN2CCOCC2)c2ccccc2)cc1F", "note": "(configuration not stated)", "AC50": "8.32 µM"}, {"compound": "O=[N+]([O-])c1c(Nc2cccc(O)c2)cc(Cl)c2nonc12", "AC50": "4.39 µM"}, {"compound": "CC(=NNC(=S)N1CCCC1)c1ccccn1", "AC50": "4.56 µM"}, {"compound": "CCCC(=O)NC(c1ccc(C)cc1)c1ccc2cccnc2c1O", "note": "(configuration not stated)", "AC50": "4.45 µM"}, {"compound": "CCN(CC)c1ccc(/C=N/Nc2nc(C)cc(=O)[nH]2)c(O)c1", "AC50": "1.41 µM"}, {"compound": "COc1ccc(C(NC(C)=O)c2cc(Cl)c3cccnc3c2O)cc1", "note": "(configuration not stated)", "AC50": "4.88 µM"}, {"compound": "Clc1ccc(SCc2cc(N3CCOCC3)nc(-c3ccccn3)n2)cc1", "AC50": "14.9 µM"}, {"compound": "CC(=NNC(=S)Nc1ccccc1)c1ccccn1", "AC50": "1.56 µM"}, {"compound": "CC(=NNC(=S)Nc1ccc(C)cc1)c1ccccn1", "AC50": "0.624 µM"}, {"compound": "CC(=NNc1nc2ccccc2o1)c1ncccn1", "AC50": "16 µM"}, {"compound": "O=C(N/N=C/c1c(O)ccc2ccccc12)c1ccc(Br)o1", "AC50": "4.46 µM"}, {"compound": "O=C(N/N=C/c1c(O)ccc2ccccc12)c1cccnc1", "AC50": "8.72 µM"}, {"compound": "COc1ccc(OCc2cccc(C(=O)NN)c2)cc1", "AC50": "> 26 µM (inactive)"}, {"compound": "COc1ccccc1NC(=S)NN=C(C)c1ccccn1", "AC50": "0.403 µM"}, {"compound": "CC(=NNc1nc2ccccc2o1)c1cc2ccccc2cn1", "AC50": "0.252 µM"}, {"compound": "CCN(CC)c1ccc(/C=N/Nc2nc3ccccc3[nH]2)c(O)c1", "AC50": "4.51 µM"}, {"compound": "O=C(c1ccccc1)C(CCC(CN1CCOCC1)C(=O)c1ccccc1)CN1CCOCC1", "note": "(configuration not stated)", "AC50": "2.57 µM"}, {"compound": "CC(=NNC(=S)Nc1cccc(Cl)c1)c1ccccn1", "AC50": "0.687 µM"}, {"compound": "CC(C)C(=O)NC(c1cccc([N+](=O)[O-])c1)c1ccc2cccnc2c1O", "note": "(configuration not stated)", "AC50": "4.33 µM"}, {"compound": "O=C(N/N=C/c1ccc[nH]1)c1ccc(COc2cccc3cccnc23)cc1", "AC50": "3.99 µM"}, {"compound": "Cc1ccc2[nH]c3c(N4CCN(Cc5ccccc5)CC4)ncnc3c2c1", "AC50": "12.2 µM"}, {"compound": "COc1ccc(N/N=C/c2c(C(=O)O)ccc3ccccc23)cc1", "AC50": "4.11 µM"}, {"compound": "CCN1CCN(Cc2ccc(NC(=O)c3ccc(C)c(NC(=O)c4c[nH]c5cc(C(F)(F)F)ccc5c4=O)c3)cc2C(F)(F)F)CC1", "AC50": "4.09 µM"}, {"compound": "CCN1CCN(Cc2ccc(NC(=O)c3ccc(C)c(NC(=O)c4cccc5[nH]ccc45)c3)cc2C(F)(F)F)CC1", "AC50": "22.3 µM"}, {"compound": "O=C(/C=C/c1ccco1)Oc1cc(Br)cc(/C=N/NC(=O)c2ccccc2O)c1", "AC50": "3.47 µM"}, {"compound": "C=CCn1c(O)c(N=NC(=S)Nc2cccc(C)c2)c2ccccc21", "AC50": "> 26 µM (inactive)"}, {"compound": "Cn1c(/C=C/c2ccccc2)nc2ccccc21", "AC50": "9.76 µM"}, {"compound": "C#CCN(C[C@@H]1[C@@H](OC(=O)NCC2CCCCC2)[C@@H](OC(=O)NCC2CCCCC2)Cn2c(=O)ccc(=O)n21)S(=O)(=O)c1ccc(C)cc1", "AC50": "4.63 µM"}, {"compound": "Cc1ccc2nc(-c3ccccn3)[nH]c2c1", "AC50": "21.6 µM"}, {"compound": "Cc1ccsc1/C=C/c1ccc2ccccc2n1", "AC50": "25.6 µM"}, {"compound": "CCC(=O)NC(c1cc(Cl)c2cccnc2c1O)C(C)C", "note": "(configuration not stated)", "AC50": "9.32 µM"}, {"compound": "C(=N\\Nc1nc2ccccc2[nH]1)/c1cccc2cccnc12", "AC50": "3.24 µM"}, {"compound": "Cc1[nH]n(-c2ccccc2)c(=O)c1/C=N/Nc1nncc(-c2ccccc2)n1", "AC50": "2.64 µM"}, {"compound": "Cc1nc(N)nc(N)c1/C=C/C(C)(C)c1ccc(Cl)cc1", "AC50": "< 0.011 µM"}, {"compound": "NC(=S)NN=Cc1nccc2c(C(F)(F)F)cccc12", "AC50": "5.67 µM"}, {"compound": "CCOc1ccc(OCc2cccc(C(=O)N/N=C/c3cccnc3)c2)cc1", "AC50": "> 26 µM (inactive)"}, {"compound": "CCC(C)Nc1nc(-c2ccccn2)nc2ccccc12", "note": "(configuration not stated)", "AC50": "4.04 µM"}, {"compound": "CCC(=O)NC(c1ccc(C)cc1)c1ccc2cccnc2c1O", "note": "(configuration not stated)", "AC50": "4.33 µM"}, {"compound": "CC(=NNc1nc2ccccc2s1)c1ncccn1", "AC50": "13.8 µM"}, {"compound": "Brc1ccc(-c2nc(-c3ccccn3)no2)o1", "AC50": "> 26 µM (inactive)"}, {"compound": "CC(=O)NC(c1cccc([N+](=O)[O-])c1)c1ccc2cccnc2c1O", "note": "(configuration not stated)", "AC50": "3.66 µM"}, {"compound": "COc1ccc(/C=C/c2nc3ccccc3n2C)cc1", "AC50": "2.27 µM"}, {"compound": "CCCCC(=O)NC(c1ccc(N(CC)CC)cc1)c1ccc2cccnc2c1O", "note": "(configuration not stated)", "AC50": "1.54 µM"}, {"compound": "COc1ccc(C(=O)NC2CCCc3c2cnn3-c2cccc(C)c2C)c(OC)n1", "note": "(configuration not stated)", "AC50": "24.1 µM"}, {"compound": "Cn1nnnc1N=N/C(=N/Nc1ccccc1)c1ccccc1", "AC50": "1.23 µM"}, {"compound": "CCC(=O)NC(c1ccc(Cl)cc1Cl)c1ccc2cccnc2c1O", "note": "(configuration not stated)", "AC50": "8.21 µM"}, {"compound": "CCCC(=O)NC(c1ccccc1Cl)c1ccc2cccnc2c1O", "note": "(configuration not stated)", "AC50": "4.36 µM"}, {"compound": "CCOc1cccc(/C=N/Nc2ccc(S(=O)(=O)N(CC)CC)cn2)c1O", "AC50": "1.69 µM"}, {"compound": "O=C(CCc1ccccc1)NC(c1cccs1)c1cc(Cl)c2cccnc2c1O", "note": "(configuration not stated)", "AC50": "9.28 µM"}, {"compound": "CN(C)c1ccc(-c2nc3ccccc3n2C)cc1", "AC50": "14.1 µM"}, {"compound": "Cc1ccc2[nH]c(C(=O)N/N=C/c3ccccc3O)c(C)c2c1", "AC50": "3.52 µM"}, {"compound": "CCCCC(=O)NC(c1ccc(Cl)cc1Cl)c1ccc2cccnc2c1O", "note": "(configuration not stated)", "AC50": "3.16 µM"}, {"compound": "O=C(O)c1cc(/C=C/c2ccc(N3CCOCC3)cc2)nc2ccccc12", "AC50": "> 26 µM (inactive)"}, {"compound": "C#CCN(C[C@@H]1[C@@H](OC(=O)NCCCCCC)[C@@H](OC(=O)NCCCCCC)Cn2c(=O)ccc(=O)n21)S(=O)(=O)c1ccc(C)cc1", "AC50": "4.1 µM"}, {"compound": "COc1ccc(-c2nc(-c3cccs3)no2)cc1", "AC50": "> 26 µM (inactive)"}, {"compound": "c1ccc(C2=NNC(=NC3CC3)SC2)cc1", "AC50": "12.1 µM"}, {"compound": "Oc1ccccc1/C=N/Nc1nccnc1Cl", "AC50": "> 26 µM (inactive)"}, {"compound": "CC(C)CC(=NNC(=O)c1ccncc1)c1cc(Cl)ccc1O", "AC50": "3.12 µM"}, {"compound": "CN(Cc1cnc2nc(N)nc(N)c2n1)c1ccc(C(=O)N[C@@H](CCC(=O)O)C(=O)O)cc1", "AC50": "0.016 µM"}, {"compound": "CC(C)OC(=O)c1ccc(NCc2cc(O)ccc2O)cc1Cl", "AC50": "6.74 µM"}, {"compound": "CCOc1ccc(/C=C/[N+](=O)[O-])c2ccccc12", "AC50": "11.8 µM"}, {"compound": "CC1(C)N=C(N)N=C(N)N1c1ccc(CCCCc2ccccc2)cc1", "AC50": "0.406 µM"}, {"compound": "CC(=O)NC(c1ccc(Cl)cc1Cl)c1ccc2cccnc2c1O", "note": "(configuration not stated)", "AC50": "1.63 µM"}, {"compound": "COc1cnc(-c2ccccn2)nc1Sc1ccccc1Cl", "AC50": "18.8 µM"}, {"compound": "CC(=NNC(=S)N1CCN(c2ccccn2)CC1)c1nccs1", "AC50": "3.52 µM"}, {"compound": "S=C(NN=Cc1ccccn1)Nc1ccccn1", "AC50": "23 µM"}, {"compound": "CCCc1nc2ccc(Br)cc2c(=O)n1-c1ccc([N+](=O)[O-])c(C(F)(F)F)c1", "AC50": "4.2 µM"}, {"compound": "COc1cccc(/C=N/Nc2nc3ccccc3[nH]2)c1O", "AC50": "5.26 µM"}, {"compound": "c1ccn2cc(-c3ccc4c(c3)OCCO4)nc2c1", "AC50": "16.1 µM"}, {"compound": "CC(C)C(=O)NC(c1ccc(Cl)cc1Cl)c1ccc2cccnc2c1O", "note": "(configuration not stated)", "AC50": "3 µM"}, {"compound": "C=C1C(=O)C2=CC1CCC(=O)C1(C)CCC(OC(C)=O)C(C)(C)C1CC2O", "note": "(configuration not stated)", "AC50": "11.3 µM"}, {"compound": "CCC(NC(=O)Nc1nnc(C(F)(F)F)s1)(C(F)(F)F)C(F)(F)F", "AC50": "9.8 µM"}, {"compound": "CCc1cc2c(N3CCN(c4ccccc4)CC3)ncnc2s1", "AC50": "26.4 µM"}, {"compound": "CCN(CC)c1ccc(/C=N/NC(=O)c2cnccn2)c(O)c1", "AC50": "3.21 µM"}, {"compound": "CCC(=O)NC(c1cc(Cl)c2cccnc2c1O)C1CC1", "note": "(configuration not stated)", "AC50": "9.86 µM"}, {"compound": "COc1ccc2c(c1)/C(=C/c1cnc[nH]1)C(=O)N2", "AC50": "23.1 µM"}]}]}
